The kinase profiling compilation of Christmann-Franck et al. (2016)
Values joined by “and” are separate entries in the source; they are usually repeats but may differ in a detail not shown here. Equal values may be shown once.

Key:
Assay in all cases: radiometric filter-binding kinase assay
AURKA (human) = AURKA (human) (UniProt O14965)
CLK2 (human) = CLK2 (human) (UniProt P49760)
CSK (human) = CSK (human) (UniProt P41240)
DYRK2 (human) = DYRK2 (human) (UniProt Q92630)
EPHA2 (human) = EPHA2 (human) (UniProt P29317)
EPHA4 (human) = EPHA4 (human) (UniProt P54764)
GCK (human) = GCK (human) (UniProt Q12851)
GSK3B (human) = GSK3B (human) (UniProt P49841)
Sequence of GSK3B (human) (P49841 whole entry, looked up): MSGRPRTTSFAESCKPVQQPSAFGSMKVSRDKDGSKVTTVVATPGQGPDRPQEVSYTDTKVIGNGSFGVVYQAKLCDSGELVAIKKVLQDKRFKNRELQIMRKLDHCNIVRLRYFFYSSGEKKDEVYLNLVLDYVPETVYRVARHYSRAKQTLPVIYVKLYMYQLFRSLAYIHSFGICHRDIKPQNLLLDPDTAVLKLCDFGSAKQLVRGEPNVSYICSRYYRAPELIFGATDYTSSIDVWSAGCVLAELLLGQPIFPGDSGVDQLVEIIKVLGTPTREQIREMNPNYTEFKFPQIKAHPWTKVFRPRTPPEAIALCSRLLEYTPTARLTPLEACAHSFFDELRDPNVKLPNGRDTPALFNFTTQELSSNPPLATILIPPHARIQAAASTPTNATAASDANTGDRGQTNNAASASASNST

IKBKB (human) = IKBKB (human) (UniProt O14920)
Sequence of IKBKB (human) (O14920 whole entry, looked up): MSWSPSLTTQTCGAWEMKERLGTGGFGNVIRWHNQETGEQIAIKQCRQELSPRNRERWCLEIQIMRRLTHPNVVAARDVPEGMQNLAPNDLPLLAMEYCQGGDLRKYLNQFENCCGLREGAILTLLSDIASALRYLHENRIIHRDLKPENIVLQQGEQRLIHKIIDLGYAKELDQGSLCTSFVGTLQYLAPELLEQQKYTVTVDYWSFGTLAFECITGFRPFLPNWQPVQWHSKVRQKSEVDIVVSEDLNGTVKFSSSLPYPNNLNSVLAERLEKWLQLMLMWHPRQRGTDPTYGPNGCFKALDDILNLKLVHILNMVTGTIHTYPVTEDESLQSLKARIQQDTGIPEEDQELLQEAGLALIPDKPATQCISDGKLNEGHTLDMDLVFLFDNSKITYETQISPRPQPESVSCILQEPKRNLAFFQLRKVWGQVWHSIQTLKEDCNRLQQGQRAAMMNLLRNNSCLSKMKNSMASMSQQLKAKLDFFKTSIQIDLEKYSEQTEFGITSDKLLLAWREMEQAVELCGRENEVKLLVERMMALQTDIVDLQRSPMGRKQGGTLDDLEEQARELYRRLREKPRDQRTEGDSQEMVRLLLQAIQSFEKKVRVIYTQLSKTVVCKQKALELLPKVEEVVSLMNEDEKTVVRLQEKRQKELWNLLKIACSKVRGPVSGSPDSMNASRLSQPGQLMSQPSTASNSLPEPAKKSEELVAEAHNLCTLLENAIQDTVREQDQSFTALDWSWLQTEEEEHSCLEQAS

INSR (human) = INSR (human) (UniProt P06213)
IRAK4 (human) = IRAK4 (human) (UniProt Q9NWZ3)
MAP2K1 (human) = MAP2K1 (human) (UniProt Q02750)
MAP3K9 (human) = MAP3K9 (human) (UniProt P80192)
Sequence of MAP3K9 (human) (P80192 whole entry, looked up): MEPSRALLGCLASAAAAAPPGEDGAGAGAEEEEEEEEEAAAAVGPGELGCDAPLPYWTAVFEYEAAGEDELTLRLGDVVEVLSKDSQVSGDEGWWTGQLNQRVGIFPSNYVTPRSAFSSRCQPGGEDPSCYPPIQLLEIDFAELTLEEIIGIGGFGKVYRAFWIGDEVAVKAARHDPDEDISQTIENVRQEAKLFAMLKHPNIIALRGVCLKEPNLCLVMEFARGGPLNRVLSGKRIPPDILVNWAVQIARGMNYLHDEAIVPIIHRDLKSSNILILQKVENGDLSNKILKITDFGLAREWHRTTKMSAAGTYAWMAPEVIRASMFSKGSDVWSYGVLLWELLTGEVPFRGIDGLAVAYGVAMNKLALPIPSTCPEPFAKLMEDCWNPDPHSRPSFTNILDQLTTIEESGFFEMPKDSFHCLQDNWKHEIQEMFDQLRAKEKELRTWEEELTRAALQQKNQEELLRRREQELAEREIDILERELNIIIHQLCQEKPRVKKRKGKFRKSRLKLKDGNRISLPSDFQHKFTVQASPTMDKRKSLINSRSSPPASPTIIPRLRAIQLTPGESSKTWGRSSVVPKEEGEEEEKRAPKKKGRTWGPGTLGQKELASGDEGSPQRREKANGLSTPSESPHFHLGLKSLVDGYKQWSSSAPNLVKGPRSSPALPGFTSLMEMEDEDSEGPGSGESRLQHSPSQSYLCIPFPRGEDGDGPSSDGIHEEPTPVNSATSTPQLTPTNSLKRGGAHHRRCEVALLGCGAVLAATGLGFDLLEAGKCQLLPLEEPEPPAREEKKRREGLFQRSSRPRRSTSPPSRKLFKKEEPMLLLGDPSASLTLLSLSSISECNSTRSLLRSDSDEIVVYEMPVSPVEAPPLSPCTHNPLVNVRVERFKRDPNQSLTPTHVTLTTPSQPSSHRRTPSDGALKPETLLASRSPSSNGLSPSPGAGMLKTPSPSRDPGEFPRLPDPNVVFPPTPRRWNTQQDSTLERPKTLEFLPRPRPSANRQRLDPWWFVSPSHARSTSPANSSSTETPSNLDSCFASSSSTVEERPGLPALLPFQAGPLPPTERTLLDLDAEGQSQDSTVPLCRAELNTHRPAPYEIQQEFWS

MAPK11 (human) = MAPK11 (human) (UniProt Q15759)
MAPKAPK3 (human) = MAPKAPK3 (human) (UniProt Q16644)
[1] = system: PAK2 (human), Q13177 [T402E]
Sequence of PAK2 (human), Q13177 [T402E] (Q13177 whole entry T402E, looked up): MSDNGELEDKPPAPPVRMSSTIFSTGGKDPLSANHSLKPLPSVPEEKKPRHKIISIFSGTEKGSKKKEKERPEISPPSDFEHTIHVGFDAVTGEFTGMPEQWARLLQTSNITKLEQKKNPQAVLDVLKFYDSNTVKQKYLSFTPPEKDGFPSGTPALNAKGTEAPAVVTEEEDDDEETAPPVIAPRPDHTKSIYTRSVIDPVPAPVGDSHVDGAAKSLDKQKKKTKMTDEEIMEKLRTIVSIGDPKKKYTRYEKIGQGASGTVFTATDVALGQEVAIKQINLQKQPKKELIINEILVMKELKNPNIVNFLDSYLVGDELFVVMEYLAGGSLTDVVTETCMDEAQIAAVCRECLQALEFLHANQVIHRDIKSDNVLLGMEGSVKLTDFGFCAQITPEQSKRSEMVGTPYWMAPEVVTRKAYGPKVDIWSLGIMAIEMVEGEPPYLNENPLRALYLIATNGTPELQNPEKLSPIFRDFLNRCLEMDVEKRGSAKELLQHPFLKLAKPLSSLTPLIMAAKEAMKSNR

PDPK1 (human) = PDPK1 (human) (UniProt O15530)
PLK1 (human) = PLK1 (human) (UniProt P53350)
PRKCA (human) = PRKCA (human) (UniProt P17252)
PRKCG (human) = PRKCG (human) (UniProt P05129)
PTK6 (human) = PTK6 (human) (UniProt Q13882)
RIPK2 (human) = RIPK2 (human) (UniProt O43353)
RPS6KA3 KD1 KD2 (human) = RPS6KA3 KD1 KD2 (human) (UniProt P51812)
Sequence of RPS6KA3 KD1 KD2 (human) (P51812 whole entry, looked up): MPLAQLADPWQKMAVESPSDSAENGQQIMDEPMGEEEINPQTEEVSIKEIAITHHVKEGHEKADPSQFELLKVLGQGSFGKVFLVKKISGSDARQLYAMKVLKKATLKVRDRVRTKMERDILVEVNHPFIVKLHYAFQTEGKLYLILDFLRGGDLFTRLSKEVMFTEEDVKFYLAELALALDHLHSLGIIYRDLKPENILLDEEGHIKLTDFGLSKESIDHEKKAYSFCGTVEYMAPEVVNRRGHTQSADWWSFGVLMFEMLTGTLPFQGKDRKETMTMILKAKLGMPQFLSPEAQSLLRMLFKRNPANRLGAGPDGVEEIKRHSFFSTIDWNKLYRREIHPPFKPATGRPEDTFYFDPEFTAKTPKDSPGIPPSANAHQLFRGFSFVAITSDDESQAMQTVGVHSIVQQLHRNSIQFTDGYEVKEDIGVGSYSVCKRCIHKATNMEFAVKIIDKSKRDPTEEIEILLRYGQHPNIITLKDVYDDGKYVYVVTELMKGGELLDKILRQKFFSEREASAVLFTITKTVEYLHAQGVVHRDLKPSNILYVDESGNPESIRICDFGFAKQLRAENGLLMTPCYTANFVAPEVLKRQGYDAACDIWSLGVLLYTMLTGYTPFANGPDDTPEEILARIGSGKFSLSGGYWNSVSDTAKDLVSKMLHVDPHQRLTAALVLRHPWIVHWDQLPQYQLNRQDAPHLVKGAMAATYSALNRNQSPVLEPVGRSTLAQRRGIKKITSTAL

[2] = system: SGK1 (human), O00141 [S422D]
SRC (human) = SRC (human) (UniProt P12931)
STK16 (human) = STK16 (human) (UniProt O75716)
TAOK1 (human) = TAOK1 (human) (UniProt Q7L7X3)
TBK1 (human) = TBK1 (human) (UniProt Q9UHD2)
TLK1 (human) = TLK1 (human) (UniProt Q9UKI8)
Sequence of TLK1 (human) (Q9UKI8 whole entry, looked up): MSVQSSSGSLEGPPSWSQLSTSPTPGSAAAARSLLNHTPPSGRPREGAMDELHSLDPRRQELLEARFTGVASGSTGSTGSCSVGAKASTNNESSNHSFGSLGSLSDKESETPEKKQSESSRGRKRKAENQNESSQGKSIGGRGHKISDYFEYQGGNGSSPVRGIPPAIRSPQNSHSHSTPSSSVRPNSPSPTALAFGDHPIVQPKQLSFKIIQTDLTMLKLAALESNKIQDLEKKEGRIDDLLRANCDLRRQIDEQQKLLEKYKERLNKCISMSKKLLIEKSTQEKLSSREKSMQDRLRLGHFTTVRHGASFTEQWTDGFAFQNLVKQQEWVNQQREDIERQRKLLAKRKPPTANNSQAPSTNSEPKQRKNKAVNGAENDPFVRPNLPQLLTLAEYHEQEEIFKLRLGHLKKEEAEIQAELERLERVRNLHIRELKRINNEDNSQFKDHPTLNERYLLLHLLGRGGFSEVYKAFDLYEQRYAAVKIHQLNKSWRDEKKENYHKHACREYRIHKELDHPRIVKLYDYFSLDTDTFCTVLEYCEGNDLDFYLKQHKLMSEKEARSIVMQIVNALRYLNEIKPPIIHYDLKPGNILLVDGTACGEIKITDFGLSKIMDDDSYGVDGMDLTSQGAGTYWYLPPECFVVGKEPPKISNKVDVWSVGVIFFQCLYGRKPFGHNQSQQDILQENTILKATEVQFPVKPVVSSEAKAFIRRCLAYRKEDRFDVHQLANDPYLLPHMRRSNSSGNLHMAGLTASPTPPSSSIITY

CCN1CCN(Cc2ccc(NC(=O)c3ccc(C)c(Oc4ccnc5[nH]ccc45)c3)cc2C(F)(F)F)CC1
residual activity (AURKA (human); compound 0.1 µM): 120%
residual activity (AURKA (human); compound 1.0 µM): 121%
residual activity (AURKA (human); compound 10.0 µM): 102%
residual activity (CLK2 (human); compound 0.1 µM): 115%
residual activity (CLK2 (human); compound 1.0 µM): 104%
residual activity (CLK2 (human); compound 10.0 µM): 75.8%
residual activity (CSK (human); compound 0.1 µM): 81.8%
residual activity (CSK (human); compound 1.0 µM): 15.4%
residual activity (CSK (human); compound 10.0 µM): 7.86%
residual activity (DYRK2 (human); compound 0.1 µM): 102%
residual activity (DYRK2 (human); compound 1.0 µM): 101%
residual activity (DYRK2 (human); compound 10.0 µM): 94.5%
residual activity (EPHA2 (human); compound 0.1 µM): 74%
residual activity (EPHA2 (human); compound 1.0 µM): 19.5%
residual activity (EPHA2 (human); compound 10.0 µM): 13.7%
residual activity (EPHA4 (human); compound 0.1 µM): 96.3%
residual activity (EPHA4 (human); compound 1.0 µM): 28.7%
residual activity (EPHA4 (human); compound 10.0 µM): 7.58%
residual activity (GCK (human); compound 0.1 µM): 24.1%
residual activity (GCK (human); compound 1.0 µM): 12.3%
residual activity (GCK (human); compound 10.0 µM): 9.08%
residual activity (GSK3B (human); compound 0.1 µM): 102%
residual activity (GSK3B (human); compound 1.0 µM): 104%
residual activity (GSK3B (human); compound 10.0 µM): 101%
residual activity (IKBKB (human); compound 0.1 µM): 114%
residual activity (IKBKB (human); compound 1.0 µM): 101%
residual activity (IKBKB (human); compound 10.0 µM): 44.6%
residual activity (INSR (human); compound 0.1 µM): 86.1%
residual activity (INSR (human); compound 1.0 µM): 81.6%
residual activity (INSR (human); compound 10.0 µM): 18%
residual activity (IRAK4 (human); compound 0.1 µM): 98.6%
residual activity (IRAK4 (human); compound 1.0 µM): 102%
residual activity (MAP2K1 (human); compound 0.1 µM): 106%
residual activity (MAP2K1 (human); compound 1.0 µM): 108%
residual activity (MAP2K1 (human); compound 10.0 µM): 93.2%
residual activity (MAP3K9 (human); compound 0.1 µM): 106%
residual activity (MAP3K9 (human); compound 1.0 µM): 90%
residual activity (MAP3K9 (human); compound 10.0 µM): 39.6%
residual activity (MAPK11 (human); compound 0.1 µM): 74.9%
residual activity (MAPK11 (human); compound 1.0 µM): 16.6%
residual activity (MAPK11 (human); compound 10.0 µM): 9.04%
residual activity (MAPKAPK3 (human); compound 0.1 µM): 90.1%
residual activity (MAPKAPK3 (human); compound 1.0 µM): 82.3%
residual activity (MAPKAPK3 (human); compound 10.0 µM): 96.7%
residual activity ([1]; compound 0.1 µM): 116%
residual activity ([1]; compound 1.0 µM): 100%
residual activity ([1]; compound 10.0 µM): 68.6%
residual activity (PDPK1 (human); compound 0.1 µM): 101% and 98%
residual activity (PDPK1 (human); compound 1.0 µM): 100% and 86.1%
residual activity (PLK1 (human); compound 0.1 µM): 103%
residual activity (PLK1 (human); compound 1.0 µM): 91.6%
residual activity (PLK1 (human); compound 10.0 µM): 95%
residual activity (PRKCA (human); compound 0.1 µM): 94%
residual activity (PRKCA (human); compound 1.0 µM): 84.4%
residual activity (PRKCA (human); compound 10.0 µM): 90.5%
residual activity (PRKCG (human); compound 0.1 µM): 108%
residual activity (PRKCG (human); compound 1.0 µM): 102%
residual activity (PRKCG (human); compound 10.0 µM): 106%
residual activity (PTK6 (human); compound 0.1 µM): 101%
residual activity (PTK6 (human); compound 1.0 µM): 43.1%
residual activity (PTK6 (human); compound 10.0 µM): 6.76%
residual activity (RIPK2 (human); compound 0.1 µM): 103%
residual activity (RIPK2 (human); compound 1.0 µM): 78.9%
residual activity (RIPK2 (human); compound 10.0 µM): 13.5%
residual activity (RPS6KA3 KD1 KD2 (human); compound 0.1 µM): 94.8%
residual activity (RPS6KA3 KD1 KD2 (human); compound 1.0 µM): 93.8%
residual activity (RPS6KA3 KD1 KD2 (human); compound 10.0 µM): 76.3%
residual activity ([2]; compound 0.1 µM): 101%
residual activity ([2]; compound 1.0 µM): 72.8%
residual activity ([2]; compound 10.0 µM): 52.1%
residual activity (SRC (human); compound 0.1 µM): 66.5%
residual activity (SRC (human); compound 1.0 µM): 9.72%
residual activity (SRC (human); compound 10.0 µM): 2.65%
residual activity (STK16 (human); compound 0.1 µM): 103%
residual activity (STK16 (human); compound 1.0 µM): 90.7%
residual activity (STK16 (human); compound 10.0 µM): 99.2%
residual activity (TAOK1 (human); compound 0.1 µM): 98.9%
residual activity (TAOK1 (human); compound 1.0 µM): 67.3%
residual activity (TAOK1 (human); compound 10.0 µM): 26.9%
residual activity (TBK1 (human); compound 0.1 µM): 113%
residual activity (TBK1 (human); compound 1.0 µM): 100%
residual activity (TBK1 (human); compound 10.0 µM): 96%
residual activity (TLK1 (human); compound 0.1 µM): 107%
residual activity (TLK1 (human); compound 1.0 µM): 92.2%
residual activity (TLK1 (human); compound 10.0 µM): 92.1%
